Measurements published in PMC4978154, “Phase I metabolites of mephedrone display biological activity as substrates at monoamine transporters” (British Journal of Pharmacology, 2016).
Like-named read-outs stand apart in the source and are kept apart here.

How the values were obtained:
DAT = biological target: T1, DAT (Rattus norvegicus, UniProt P23977); assay: Transporter release assay in rat brain synaptosomes, DAT; type: biochemical; conditions: [3H]-MPP+, mean (95% confidence interval)
T1 construct: a native tissue preparation that contains plasma membrane transporters in situ; from tissue; host or cells: rat striatum synaptosomes
Experimental: (§1) The ability of mephedrone and its metabolites to evoke release via DAT, NET and SERT was determined in rat brain synaptosomes as previously described (Baumann et al., 2012). Rats were killed with CO2, decapitated, and brains were rapidly removed and dissected on ice. Synaptosomes were prepared from striatum for DAT assays, whereas synaptosomes were prepared from whole brain minus striatum and cerebellum for the NET and SERT assays. [^3H]‐MPP^+ (9 nM) was used as the radiolabelled substrate for DAT and NET, whereas [^3H]‐5‐HT (5 nM) was used as the radiolabelled substrate for SERT. All buffers used in the release assays contained 1 μM reserpine to block vesicular uptake of substrates. The selectivity of assays was optimized for a single transporter by including unlabelled compounds [nomifensine and 1‐(2‐diphenylmethoxyethyl)‐4‐(3‐phenylpropyl)piperazine dihydrochloride (GBR12935) for SERT; GBR12935 and citalopram for NET; citalopram and desipramine for DAT] to prevent the uptake of [^3H]‐MPP^+ or [^3H]‐5‐HT by competing transporters. Synaptosomes were preloaded with radiolabelled substrate in Krebs‐phosphate buffer, which consisted of 126 mM NaCl, 2.4 mM KCl, 0.5 mM KH2PO4, 1.1 mM CaCl2, 0.83 mM MgCl2, 0.5 mM Na2SO4, 11.1 mM glucose, 13.7 mM Na2HPO4, 1 mg·mL^−1 ascorbic acid and 50 μM pargyline (pH = 7.4) for 1 h (steady state). […] Assays were terminated by vacuum filtration, and retained radioactivity was quantified by liquid scintillation counting.
(§2) Calculations were performed using Microsoft Excel® 2010 (Microsoft Corporation, Redmond, WA, USA) and GRAPHPAD PRISM 5.0. […] IC50 values for uptake inhibition and EC50 values for release were determined by nonlinear regression fits. Release data expressed as AUC were analysed by one‐way ANOVA followed by Bonferroni's multiple comparison test. Microdialysis and locomotor data were analysed by two‐way ANOVA (drug treatment × time) followed by Bonferroni's test. The effect of monensin treatment on basal efflux of tritiated substrate was analysed with the Mann–Whitney test. […]

[1] = forensic traffic case, ref Pedersen et al., 2013, cited from earlier work; for blood concentration, first case: parent drug:metabolite 28:2; for blood concentration, second case: parent drug:metabolite 29:9
NET = biological target: T2, NET (Rattus norvegicus, UniProt Q63380); assay: Transporter release assay in rat brain synaptosomes, NET; type: biochemical; conditions: [3H]-MPP+, mean (95% confidence interval)
T2 construct: a native tissue preparation that contains plasma membrane transporters in situ; from tissue; host or cells: rat whole brain minus striatum and cerebellum, synaptosomes
Experimental: as §1, §2

rats = assay: Locomotor activity (photobeam breaks) during microdialysis; type: in vivo; conditions: rat; for effect on motor activity: 3 mg·kg−1 i.v.; for effect on motor behaviour (activity): 1 and 3 mg·kg−1 i.v.
Experimental: (§3) In vivo microdialysis procedures were carried out as previously described with minor modifications (Baumann et al., 2012). Briefly, male rats anaesthetized with sodium pentobarbital (60 mg·kg^−1, i.p.) received surgically implanted jugular catheters, and intracerebral guide cannulae aimed at the nucleus accumbens (AP +1.6 mm, ML −1.7 mm relative to bregma; −6.2 mm relative to dura) (Paxinos and Watson, 2007). After a 7–10 day recovery, each rat was placed into a chamber equipped with photobeams for the detection of motor parameters (TruScan, Harvard Apparatus, Holliston, MA, USA) and allowed to acclimatize overnight. Food and water were available ad libitum during the acclimatization period. On the following morning, catheters were attached to PE 50 extension tubes, and 0.5 × 2 mm microdialysis probes (CMA/12, Harvard Apparatus, Holliston, MA, USA) were inserted into the guide cannulae. Ringers' solution (150 mM NaCl, 2.8 mM KCl and 2.0 mM CaCl2) was perfused through the probes at 0.6 μL·min^−1 for 3 h. To commence experiments, dialysate samples ([…]) were collected at 20 min intervals, and drug or saline treatments were given after three baseline samples were obtained. Rats received two sequential i.v. injections of mephedrone or its metabolites, with 1 mg·kg^−1 administered at time zero, followed by 3 mg·kg^−1 60 min later. Saline was administered using the same schedule in a separate group of rats. Dialysate concentrations of dopamine and 5‐HT were quantified using HPLC coupled to electrochemical detection (Baumann et al., 2012). Chromatographic data were exported to an Empower software system (Waters, Inc., Milford, MA, USA) for peak identification, integration and analysis.
(§4) Calculations were performed using Microsoft Excel® 2010 (Microsoft Corporation, Redmond, WA, USA) and GRAPHPAD PRISM 5.0. (GraphPad Software Inc., La Jolla, CA, USA). IC50 values for uptake inhibition and EC50 values for release were determined by nonlinear regression fits. Release data expressed as AUC were analysed by one‐way ANOVA followed by Bonferroni's multiple comparison test. Microdialysis and locomotor data were analysed by two‐way ANOVA (drug treatment × time) followed by Bonferroni's test. The effect of monensin treatment on basal efflux of tritiated substrate was analysed with the Mann–Whitney test. P values less than 0.05 (i.e. P < 0.05) were considered significant. The data and statistical analysis comply with the recommendations on experimental design and analysis in pharmacology (Curtis et al., 2015).

[2] = system: extracellular dopamine in rat nucleus accumbens; assay: Microdialysis in rat nucleus accumbens, dialysate dopamine; type: in vivo; conditions: versus saline
Experimental: as §3
Correct probe placements were assessed after the microdialysis experiments. Rats were killed by CO2 narcosis then decapitated. Brains were quickly removed and immersion fixed in 10% paraformaldehyde for 1 week. Subsequently, brains were sectioned on a cryostat, and the location of each probe tip was verified by inspection of photographic images of the brain taken with a digital camera using the macro lens setting.
as §4

[3] = EC50 on transporter mediated efflux, DAT
[4] = EC50 on transporter mediated efflux, NET
[5] = 3 mg·kg−1 i.v. (60 min after 1 mg·kg−1)

T2 sequence (Q63380 1-617): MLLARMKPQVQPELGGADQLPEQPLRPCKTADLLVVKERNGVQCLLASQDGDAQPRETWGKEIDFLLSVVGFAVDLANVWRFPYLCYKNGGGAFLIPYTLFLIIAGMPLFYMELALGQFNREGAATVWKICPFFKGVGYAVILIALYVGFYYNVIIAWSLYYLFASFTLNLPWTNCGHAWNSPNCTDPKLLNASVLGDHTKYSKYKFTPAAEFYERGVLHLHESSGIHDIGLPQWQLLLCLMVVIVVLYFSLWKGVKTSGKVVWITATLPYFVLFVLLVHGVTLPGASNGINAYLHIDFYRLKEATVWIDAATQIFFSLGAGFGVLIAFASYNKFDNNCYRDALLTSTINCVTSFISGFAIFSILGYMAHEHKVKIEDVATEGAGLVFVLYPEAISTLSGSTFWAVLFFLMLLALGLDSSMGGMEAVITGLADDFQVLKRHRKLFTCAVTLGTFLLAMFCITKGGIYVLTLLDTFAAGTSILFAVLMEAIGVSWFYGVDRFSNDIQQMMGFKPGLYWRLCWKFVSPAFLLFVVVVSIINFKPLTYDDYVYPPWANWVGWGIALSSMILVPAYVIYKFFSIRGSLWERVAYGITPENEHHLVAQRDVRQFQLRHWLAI
T1 sequence (P23977 whole entry): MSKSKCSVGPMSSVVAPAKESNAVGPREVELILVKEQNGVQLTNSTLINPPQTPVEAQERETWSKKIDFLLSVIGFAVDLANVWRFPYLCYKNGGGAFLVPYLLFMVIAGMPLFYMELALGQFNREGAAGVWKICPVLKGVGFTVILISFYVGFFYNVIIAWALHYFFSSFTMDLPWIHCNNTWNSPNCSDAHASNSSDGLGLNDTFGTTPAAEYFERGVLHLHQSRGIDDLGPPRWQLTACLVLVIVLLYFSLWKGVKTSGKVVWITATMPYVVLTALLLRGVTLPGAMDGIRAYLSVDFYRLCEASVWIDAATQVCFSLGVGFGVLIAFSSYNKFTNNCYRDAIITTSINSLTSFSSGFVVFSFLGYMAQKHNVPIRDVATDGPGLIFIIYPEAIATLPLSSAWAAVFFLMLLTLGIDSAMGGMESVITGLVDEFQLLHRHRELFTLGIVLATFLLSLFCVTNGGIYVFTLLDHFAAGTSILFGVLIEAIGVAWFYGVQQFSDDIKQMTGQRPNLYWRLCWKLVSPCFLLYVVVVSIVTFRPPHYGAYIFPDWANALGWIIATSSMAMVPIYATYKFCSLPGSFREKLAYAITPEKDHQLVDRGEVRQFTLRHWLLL

SMILES | EC50 (DAT; [3]) [nM] | blood concentration, first case [1] [µg/kg] | blood concentration, second case [1] [µg/kg] | EC50 (NET; [4]) [nM] | effect on motor activity (rats) | effect on motor behaviour (activity) (rats) | effect on dialysate dopamine ([2]; 1 mg·kg−1 i.v.) | effect on dialysate dopamine [2, 5] | EC50 (DAT; read-out: EC50 on transporter mediated efflux, DAT) [nM] | EC50 (NET; read-out: EC50 on transporter mediated efflux, NET) [nM]
CNC(C)C(=O)c1ccc(C)cc1.Cl (centres unmarked) [Mephedrone, 2‐Methylamino‐1‐(p‐tolyl)propan‐1‐one hydrochloride] | 52 | 28 | 29 | 90 | significantly stimulated motor activity | increased activity | increased dopamine | elevated dopamine |  | 
Cc1ccc(C(=O)C(C)N)cc1.Cl (centres unmarked) [Nor‐mephedrone, 2‐amino‐1‐(p‐tolyl)propan‐1‐one hydrochloride] | 220 |  |  | 100 | significantly stimulated motor activity | increased activity |  | elevated dopamine |  | 
CNC(C)C(=O)c1ccc(CO)cc1.Cl (centres unmarked) [4‐OH‐mephedrone, 1‐(4‐(hydroxymethyl)phenyl)‐2‐(methylamino)propan‐1‐one hydrochloride] |  | 2 | 9 |  |  | did not | no significant impact | no significant impact | 190 | 150
